Data reported in patent US8466202B2, “Anthracenedione compounds” (Sunten Phytotech Co., Ltd., priority 2006, dated 2013).
Several values for one entry are separate records, joined by “and”; a condition that tells them apart may be missing. Equal entries are not always repeated.

What was measured:
healthy male S.D. rats = assay: Feces production in rats over the 10-day period (Example 3); assay type: in vivo, rat; conditions: for increase of the feces amount (wet weight): vs control of the same group; for Pellet count / Water content / Wet Weight: Sennosides 3.35 mg/kg; for increase of the feces amount (wet weight), average: average of Days 1, 5 and 10
Experimental: During this period, the body weights of the rats were weighed each day and recorded. Feces of each rat were studied three times during the period for any unusual observations. Specifically, the amounts of feces were weighed on Days 11, 15, 18, and 21. During observation, each rat was placed in a metabolic cage. Feces were collected every twenty-four hours. The number of collected feces pellets was counted, and the pellets' shapes and colors were evaluated. After weighing the moist feces, they were dried in an oven at 100° C. for twenty-four hours. The water content from the feces was calculated according to the following formula: Water content percentage=[(wet weight−dry weight)/wet weight]×100%. (I) The results are summarized in Table 2 below: The aforementioned STD05 and compounds were studied for the laxative activity. Healthy male S.D. rats (BioLASCO Taiwan Co. Ltd.) were divided into three groups (i.e., Groups 1-3) in this study. In Group I, 6 rats, as negative control, were given no treatment; 6 rats, as positive control, were given 3.35 mg/kg/day Sennosides (Through®, Chung Mei Pharmaceutical Co., Ltd; Active ingredient: Sennosides 20 mg, as sennoside A+B 12 mg, Lot. 012F 006); 6 rats were treated STD05 (8 mg/kg/day); 6 rats were treated with an extract fraction containing aloe-emodin, rhein, and emodin (“ARE”, 8 mg/kg/day); 6 rats were treated with Aloe-emodin (4 mg/kg/day); and 6 rats were treated with Rhein (4 mg/kg/day). In Group II, 6 rats, as negative control, were given no treatment; 6 rats, as positive control, were given 3.35 mg/kg/day Sennosides; 6 rats were treated STD05 (24 mg/kg/day); 6 rats were treated with an extract fraction containing ARE (24 mg/kg/day); 6 rats were treated with Chrysophanol (4 mg/kg/day); and 6 rats were treated with Emodin (4 mg/kg/day). In Group III, 6 rats, as negative control, were given no treatment; 6 rats were treated with Physcoin (4 mg/kg/day); and 6 rats were treated with a mixture of chrysophanol and physcion (8 mg/kg/day, “CP”). The experiments were carried out under controlled temperature, humidity, and lighting. Each rat was fed standard rat food and water ad libitum in housing that provided a 12-hour light/dark cycle. For statistical comparison, all of the rats were divided into six sets according to the body weights. The first part of the experiment studied the effect of the test substances on feces production. During the 10-day period, the body weights of the rats were weighed each day and recorded. The rat's feces was also studied three times in the manner described above during the 10-day period for any unusual observations. During the 10-day period, any rat that appeared dying was euthanized, dissected, and examined for any illness or injury. Any complications or illness were analyzed by H&E stains to determine the cause of death and to allow for dosage reconsiderations for future experiments. Summarized in Table 4 below are the effects of the compounds, mixtures, or extracts on the rat body weights. During the period, feces produced by the rats were studied days 1, 5, and 10 in the same manner described above. […] In the 10-day period, the rats administered with STD05 produced more feces (wet weight) that the rats in the control group by about 32%. In addition, the pellet counts for the rats administered with STD05 were greater than those for the control rats by about 20%. Furthermore, STD05 increased the water content in feces by about 18%. The same experiments were conducted on rats administered with physcion, aloe-emodin, chrysophanol, rhein, emodin, CP, and ARE.

[1] = Body weight of rats over the 10-day period (Example 3); assay type: in vivo, rat; design: Body weight Difference: unit not given here; conditions: Sennosides 3.35 mg/kg/day; for Body weight Difference, Mean / Body weight End Day 10, Mean: group mean; for Body weight Difference, Mean / Body weight Difference: Day 10 minus Day 1; for Body weight Difference / Body weight End Day 10: individual rats
Experimental: The aforementioned STD05 and compounds were studied for the laxative activity. Healthy male S.D. rats (BioLASCO Taiwan Co. Ltd.) were divided into three groups (i.e., Groups 1-3) in this study. In Group I, 6 rats, as negative control, were given no treatment; 6 rats, as positive control, were given 3.35 mg/kg/day Sennosides (Through®, Chung Mei Pharmaceutical Co., Ltd; Active ingredient: Sennosides 20 mg, as sennoside A+B 12 mg, Lot. 012F 006); 6 rats were treated STD05 (8 mg/kg/day); 6 rats were treated with an extract fraction containing aloe-emodin, rhein, and emodin (“ARE”, 8 mg/kg/day); 6 rats were treated with Aloe-emodin (4 mg/kg/day); and 6 rats were treated with Rhein (4 mg/kg/day). In Group II, 6 rats, as negative control, were given no treatment; 6 rats, as positive control, were given 3.35 mg/kg/day Sennosides; 6 rats were treated STD05 (24 mg/kg/day); 6 rats were treated with an extract fraction containing ARE (24 mg/kg/day); 6 rats were treated with Chrysophanol (4 mg/kg/day); and 6 rats were treated with Emodin (4 mg/kg/day). In Group III, 6 rats, as negative control, were given no treatment; 6 rats were treated with Physcoin (4 mg/kg/day); and 6 rats were treated with a mixture of chrysophanol and physcion (8 mg/kg/day, “CP”). The experiments were carried out under controlled temperature, humidity, and lighting. Each rat was fed standard rat food and water ad libitum in housing that provided a 12-hour light/dark cycle. For statistical comparison, all of the rats were divided into six sets according to the body weights. The first part of the experiment studied the effect of the test substances on feces production. During the 10-day period, the body weights of the rats were weighed each day and recorded. The rat's feces was also studied three times in the manner described above during the 10-day period for any unusual observations. During the 10-day period, any rat that appeared dying was euthanized, dissected, and examined for any illness or injury. Any complications or illness were analyzed by H&E stains to determine the cause of death and to allow for dosage reconsiderations for future experiments. Summarized in Table 4 below are the effects of the compounds, mixtures, or extracts on the rat body weights.

[2] = Group I, Day 1, STD05 8 mg/kg, ARE 8 mg/kg, Aloe-emodin 4 mg/kg, Rhein 4 mg/kg
[3] = Group I, Day 5, STD05 8 mg/kg, ARE 8 mg/kg, Aloe-emodin 4 mg/kg, Rhein 4 mg/kg
[4] = Group I, Day 10, STD05 8 mg/kg, ARE 8 mg/kg, Aloe-emodin 4 mg/kg, Rhein 4 mg/kg
[5] = Group I, STD05 8 mg/kg, ARE 8 mg/kg, Aloe-emodin 4 mg/kg, Rhein 4 mg/kg
[6] = Group II, Day 1, STD05 24 mg/kg, ARE 24 mg/kg, Chrysophanol 4 mg/kg, Emodin 4 mg/kg
[7] = Group II, Day 5, STD05 24 mg/kg, ARE 24 mg/kg, Chrysophanol 4 mg/kg, Emodin 4 mg/kg
[8] = Group II, Day 10, STD05 24 mg/kg, ARE 24 mg/kg, Chrysophanol 4 mg/kg, Emodin 4 mg/kg
[9] = Group II, STD05 24 mg/kg, ARE 24 mg/kg, Chrysophanol 4 mg/kg, Emodin 4 mg/kg

Row | Compound | increase of the feces amount (wet weight) (healthy male S.D. rats; Day 1) [%] | increase of the feces amount (wet weight) (healthy male S.D. rats; Day 5) [%] | increase of the feces amount (wet weight) (healthy male S.D. rats; Day 10) [%] | Pellet count (healthy male S.D. rats; [2]) | Water content (healthy male S.D. rats; [2]) [%] | Wet Weight (healthy male S.D. rats; [2]) [g] | Pellet count (healthy male S.D. rats; [3]) | Water content (healthy male S.D. rats; [3]) [%] | Wet Weight (healthy male S.D. rats; [3]) [g] | Pellet count (healthy male S.D. rats; [4]) | Water content (healthy male S.D. rats; [4]) [%] | Wet Weight (healthy male S.D. rats; [4]) [g] | increase of the feces amount (wet weight), average (healthy male S.D. rats) [%] | Body weight Difference, Mean [1, 5] [g] | Body weight End Day 10, Mean [1, 5] [g] | Body weight Difference [1, 5] | Body weight End Day 10 [1, 5] | other results
1 | O=C1c2cccc(O)c2C(=O)c2c(O)cc(CO)cc21 [Aloe-emodin] | 27 | 9 | 20 | 98 | 42.48 | 17.00 | 104 | 41.98 | 20.21 | 125 | 50.48 | 28.86 | 19 | 58 | 330 | 45 and 50 (2×) and 40 (2×) and 55 | 315 (2×) and 335 and 345 (2×) and 325 | 
2 | Cc1cc(O)c2c(c1)C(=O)c1cc(O)cc(O)c1C2=O [Emodin] | −30 | 12 | 4 |  |  |  |  |  |  |  |  |  | −5 |  |  |  |  | Pellet count (healthy male S.D. rats; [6]): 90; Water content (healthy male S.D. rats; [6]): 42.38%; Wet Weight (healthy male S.D. rats; [6]): 16.86 g; Pellet count (healthy male S.D. rats; [7]): 112; Water content (healthy male S.D. rats; [7]): 51.00%; Wet Weight (healthy male S.D. rats; [7]): 25.51 g; Pellet count (healthy male S.D. rats; [8]): 106; Water content (healthy male S.D. rats; [8]): 53.64%; Wet Weight (healthy male S.D. rats; [8]): 26.21 g; Body weight Difference, Mean [1, 9]: 32 g; Body weight End Day 10, Mean [1, 9]: 379 g; Body weight Difference [1, 9]: 30 and 35 (3×) and 45 and 10; Body weight End Day 10 ([1]; Group II, STD05 24 mg/kg, ARE 24 mg/kg, Chrysophanol 4 mg/kg, Emodin 4 mg/kg, in g (unit assumed)): 370 and 380 and 405 and 340 and 385 and 395
3 | O=C(O)c1cc(O)c2c(c1)C(=O)c1cccc(O)c1C2=O [Rhein] | 31 | −9 | −1 | 102 | 42.58 | 17.57 | 89 | 44.55 | 16.88 | 119 | 46.53 | 23.52 | 7 | 51 | 331 | 55 (4×) and 50 and 35 | 330 (2×) and 340 (2×) and 310 and 335 | 
